Calls of active or inactive are those of the source. The calls are words filed in the database; no cut-off is given here.
Key:
[1] = Protein binding in plasma; type: ADME, cell-free; settings: read-out: PPB
[2] = target: Serine/threonine-protein kinase PknG (Mycobacterium tuberculosis) (UniProt P9WI73); assay: Inhibition of Mycobacterium tuberculosis PknG
[3] = target: T1, Serine/threonine-protein kinase PknF (Mycobacterium tuberculosis) (UniProt P9WI75); assay: Inhibition of Mycobacterium tuberculosis PknF
T1 sequence (whole entry): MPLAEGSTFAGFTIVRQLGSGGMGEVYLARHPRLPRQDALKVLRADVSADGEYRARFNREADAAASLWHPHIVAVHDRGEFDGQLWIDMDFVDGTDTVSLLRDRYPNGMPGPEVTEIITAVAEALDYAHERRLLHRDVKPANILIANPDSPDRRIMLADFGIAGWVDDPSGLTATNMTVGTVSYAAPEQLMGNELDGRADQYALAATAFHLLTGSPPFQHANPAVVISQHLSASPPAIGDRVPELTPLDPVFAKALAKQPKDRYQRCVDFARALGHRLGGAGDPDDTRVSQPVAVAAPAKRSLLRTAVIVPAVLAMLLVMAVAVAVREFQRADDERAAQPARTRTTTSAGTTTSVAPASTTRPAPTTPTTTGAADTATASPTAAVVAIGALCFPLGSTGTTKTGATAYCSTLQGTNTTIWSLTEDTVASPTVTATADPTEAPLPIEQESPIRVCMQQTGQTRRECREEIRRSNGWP

Sequence of Serine/threonine-protein kinase PknG (Mycobacterium tuberculosis) (P9WI73 whole entry): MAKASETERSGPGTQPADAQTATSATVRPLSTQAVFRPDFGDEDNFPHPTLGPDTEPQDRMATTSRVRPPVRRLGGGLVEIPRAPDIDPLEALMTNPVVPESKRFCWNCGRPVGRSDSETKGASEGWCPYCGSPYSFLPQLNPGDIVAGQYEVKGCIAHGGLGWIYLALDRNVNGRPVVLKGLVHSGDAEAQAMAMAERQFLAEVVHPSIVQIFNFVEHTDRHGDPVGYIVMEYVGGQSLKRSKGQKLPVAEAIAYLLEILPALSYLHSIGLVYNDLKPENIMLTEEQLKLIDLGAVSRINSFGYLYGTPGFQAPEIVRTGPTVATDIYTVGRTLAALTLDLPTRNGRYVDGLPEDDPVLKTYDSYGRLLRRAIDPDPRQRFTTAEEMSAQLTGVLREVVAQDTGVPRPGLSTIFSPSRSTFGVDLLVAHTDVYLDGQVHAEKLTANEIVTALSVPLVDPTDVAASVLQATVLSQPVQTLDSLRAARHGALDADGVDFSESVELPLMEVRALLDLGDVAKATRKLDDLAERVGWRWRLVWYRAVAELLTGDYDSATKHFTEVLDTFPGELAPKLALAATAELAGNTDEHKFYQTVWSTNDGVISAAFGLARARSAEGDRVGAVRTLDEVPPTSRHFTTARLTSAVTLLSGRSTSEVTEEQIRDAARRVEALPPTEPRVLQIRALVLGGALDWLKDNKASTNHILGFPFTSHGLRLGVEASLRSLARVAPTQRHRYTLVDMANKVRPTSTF

Question: For `Fc1ccc(-c2nc(Nc3cc[nH]n3)c3ccccc3n2)cc1`, which fraction unbound [1] is on record?
Answer: < 0.01

Question: And the inhibition [2]?
Answer: Active

Question: What about the inhibition [3] of the same compound?
Answer: Active

Question: What does the source list for `CS(=O)(=O)NCc1ccc(-c2nccc(Nc3cc(C4CC4)[nH]n3)n2)cc1`?
Answer: inhibition [2]: Active; inhibition [3]: Active

Question: For `CN(C)[C@@H]1CCN(c2cc(Nc3cc(C4CC4)[nH]n3)nc(-c3ccccc3)n2)C1`, which inhibition [2] is on record?
Answer: Active

Question: What about the inhibition [3] of the same compound?
Answer: Active

Question: What does the source list for `Clc1ccccc1CCNc1nccc(Nc2cc(C3CC3)[nH]n2)n1`?
Answer: inhibition [2]: Active; inhibition [3]: Active

Question: Which results are given for `c1cc(Nc2cc(C3CC3)[nH]n2)nc(NC2CCCCC2)n1`?
Answer: inhibition [2]: Active; inhibition [3]: Active

Question: What does the source list for `Fc1ccc(-c2nccc(Nc3cc(C4CC4)[nH]n3)n2)cc1`?
Answer: inhibition [2]: Active; inhibition [3]: Active

Question: For `c1cncc(-c2nccc(Nc3cc(C4CC4)[nH]n3)n2)c1`, which inhibition [2] is on record?
Answer: Active

Question: And the inhibition [3]?
Answer: Active

Question: Which results are given for `CN(C)CCNc1cc(Nc2cc(C3CC3)[nH]n2)nc(-c2ccccc2)n1`?
Answer: inhibition [2]: Active; inhibition [3]: Active

Question: For `Cc1cc(Nc2nc(-c3ccc(F)cc3)nc3ccccc23)n[nH]1`, which fraction unbound [1] is on record?
Answer: < 0.01

Question: And the inhibition [2]?
Answer: Active

Question: And the inhibition [3]?
Answer: Active

Question: Which inhibition [2] does the source give for `Fc1cccc(CCNc2nccc(Nc3cc(C4CC4)[nH]n3)n2)c1` here?
Answer: Active

Question: What about the inhibition [3] of the same compound?
Answer: Active

Question: With `c1ccc2c(Nc3cc(C4CC4)n[nH]3)nc(-c3ccncc3)nc2c1` as the compound, how does the fraction unbound [1] read?
Answer: < 0.01

Question: Which results are given for `CS(=O)(=O)Nc1cccc(-c2nccc(Nc3cc(C4CC4)[nH]n3)n2)c1`?
Answer: inhibition [2]: Active; inhibition [3]: Active

Question: With `c1ccc2c(Nc3cc(C4CC4)[nH]n3)nc(NC3CCCCC3)nc2c1` as the compound, how does the fraction unbound [1] read?
Answer: < 0.01

Question: What about the inhibition [2] of the same compound?
Answer: Active

Question: What about the inhibition [3] of the same compound?
Answer: Active

Question: Which fraction unbound [1] does the source give for `Fc1ccc(-c2nc(Nc3cc(C4CC4)n[nH]3)c3ccccc3n2)cc1` here?
Answer: < 0.01

Question: With `c1ccc2c(Nc3cc(C4CC4)[nH]n3)nc(NCC3CC3)nc2c1` as the compound, how does the inhibition [2] read?
Answer: Active

Question: What about the inhibition [3] of the same compound?
Answer: Active

Question: Which results are given for `CN(C)[C@@H]1CCN(c2cc(Nc3cc(C(F)(F)F)ccn3)nc(-c3cccc(C#N)c3)n2)C1`?
Answer: inhibition [2]: Active; inhibition [3]: Active

Question: Which results are given for `COc1ccnc(Nc2cc(N3CC[C@@H](N(C)C)C3)nc(-c3ccccc3)n2)c1`?
Answer: inhibition [2]: Active; inhibition [3]: Active

Question: With `c1cc(Nc2cc(C3CC3)[nH]n2)nc(NCC2CC2)n1` as the compound, how does the inhibition [2] read?
Answer: Active

Question: What about the inhibition [3] of the same compound?
Answer: Active

Question: Which inhibition [2] does the source give for `CN1CCC(CNc2cc(Nc3cc(C4CC4)[nH]n3)nc(-c3ccccc3)n2)CC1` here?
Answer: Active

Question: And the inhibition [3]?
Answer: Active

Question: With `Fc1ccc(-c2nc(Nc3cc(C4CC4)[nH]n3)c3ccccc3n2)cc1` as the compound, how does the inhibition [2] read?
Answer: Active

Question: What about the inhibition [3] of the same compound?
Answer: Active

Question: Which results are given for `CN(C)[C@@H]1CCN(c2cc(Nc3cc(Cl)ccn3)nc(-c3ccccc3)n2)C1`?
Answer: inhibition [2]: Active; inhibition [3]: Active

Question: For `CN1CCC(Nc2cc(Nc3cc(C4CC4)[nH]n3)nc(-c3ccccc3)n2)CC1`, which inhibition [2] is on record?
Answer: Active

Question: And the inhibition [3]?
Answer: Active

Question: For `Cc1cc(Nc2nc(-c3ccncc3)nc3ccccc23)n[nH]1`, which inhibition [2] is on record?
Answer: Active

Question: And the inhibition [3]?
Answer: Active

Question: With `CS(=O)(=O)c1cccc(-c2nccc(Nc3cc(C4CC4)[nH]n3)n2)c1` as the compound, how does the inhibition [2] read?
Answer: Active

Question: What about the inhibition [3] of the same compound?
Answer: Active

Question: For `c1cc(Nc2cc(C3CC3)[nH]n2)nc(NC2CCCC2)n1`, which inhibition [2] is on record?
Answer: Active

Question: And the inhibition [3]?
Answer: Active

Question: What does the source list for `CN1CCC(CNc2cc(Nc3cc(C4CC4)[nH]n3)nc(-c3cccc(S(C)(=O)=O)c3)n2)CC1`?
Answer: inhibition [2]: Active; inhibition [3]: Active

Question: Which inhibition [2] does the source give for `CN1CCC(CNc2cc(Nc3cc(C4CC4)[nH]n3)nc(-c3cccc(C#N)c3)n2)CC1` here?
Answer: Active

Question: What about the inhibition [3] of the same compound?
Answer: Active

Question: Which results are given for `c1ccc(-c2nc(Nc3cc(C4CC4)[nH]n3)cc(OCCN3CCCC3)n2)cc1`?
Answer: inhibition [2]: Active; inhibition [3]: Active

Question: Which inhibition [2] does the source give for `CN(C)[C@@H]1CCN(c2cc(Nc3cc(C4CC4)[nH]n3)nc(-c3cccc(C#N)c3)n2)C1` here?
Answer: Active

Question: And the inhibition [3]?
Answer: Active

Question: Which results are given for `N#Cc1cccc(-c2nccc(Nc3cc(C4CC4)[nH]n3)n2)c1`?
Answer: inhibition [2]: Active; inhibition [3]: Active

Question: With `CC(C)CCNc1nccc(Nc2cc(C3CC3)[nH]n2)n1` as the compound, how does the inhibition [2] read?
Answer: Active

Question: What about the inhibition [3] of the same compound?
Answer: Active

Question: With `c1ccc(-c2nc(Nc3cc(C4CC4)n[nH]3)c3ccccc3n2)cc1` as the compound, how does the fraction unbound [1] read?
Answer: < 0.01

Question: Which inhibition [2] does the source give for `NC(=O)c1cccc(-c2nccc(Nc3cc(C4CC4)[nH]n3)n2)c1` here?
Answer: Active

Question: And the inhibition [3]?
Answer: Active

Question: Which inhibition [2] does the source give for `CN1CCN(c2cc(Nc3cc(C4CC4)[nH]n3)nc(-c3ccccc3)n2)CC1` here?
Answer: Active

Question: And the inhibition [3]?
Answer: Active

Question: Which results are given for `c1ccc2c(Nc3cc(C4CC4)[nH]n3)nc(-c3ccncc3)nc2c1`?
Answer: inhibition [2]: Active; inhibition [3]: Active

Question: Which inhibition [2] does the source give for `CN(C)CCNc1cc(Nc2cc(C3CC3)[nH]n2)nc(-c2cccc(C#N)c2)n1` here?
Answer: Active

Question: And the inhibition [3]?
Answer: Active

Question: Which inhibition [2] does the source give for `c1ccc(-c2nc(Nc3cc(C4CC4)[nH]n3)c3ccccc3n2)cc1` here?
Answer: Active

Question: And the inhibition [3]?
Answer: Active

Question: For `c1ccc2c(Nc3cc(C4CC4)n[nH]3)nc(NCC3CC3)nc2c1`, which fraction unbound [1] is on record?
Answer: < 0.01

Question: What does the source list for `c1ccc(CNc2nccc(Nc3cc(C4CC4)[nH]n3)n2)cc1`?
Answer: inhibition [2]: Active; inhibition [3]: Active

Question: Which results are given for `CN(C)[C@@H]1CCN(c2cc(Nc3ccccn3)nc(-c3cccc(C#N)c3)n2)C1`?
Answer: inhibition [2]: Active; inhibition [3]: Active

From ChEMBL document CHEMBL2016574, “Substituted aminopyrimidine protein kinase B (PknB) inhibitors show activity against Mycobacterium tuberculosis” (Bioorg Med Chem Lett, 2012)
